Activity calls are given as the source filed them.
Experiments:
[1] = HepG2 cell cytotoxicity, dose response, cytotoxicity control, plate reader, cherry-pick, antagonist series (AID 743416); format: functional, cell-based
[2] = HEK293 cell cytotoxicity, dose response, cytotoxicity control, plate reader, cherry-picked samples (AID 743446); format: functional, cell-based
[3] = A549 cell cytotoxicity, dose response, cytotoxicity control, plate reader, cherry-pick, antagonist series (AID 743412); format: functional, cell-based
[4] = ZM109 Env clade C HIV-1 fusion inhibitors, dose response, HeLa effector, CEM target cells, luciferase, cherry-pick (AID 652058); format: functional, cell-based
[5] = off-target signal loss in HeLa-CEM21 co-culture – HeLa F-luc CTL cells, cherry-picked, counter-screen for HIV-1 Env fusion inhibitor project, dose response (AID 652040); format: functional, cell-based;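 also: potency for signal decrease marking cytotoxic or nonspecific inhibition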
[6] = inhibitors of clade B AD8 Env fusion, dose response, cell-based, cherry-pick (AID 652062); format: functional;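 also: luciferase signal from cell-cell fusion driven by HIV-1 clade B AD8 Env; potency is for inhibitors of fusion seen as a drop in luminescence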
[7] = inhibitors of HIV Env-driven cell fusion, dose response, cherry-pick (AID 652057); format: functional, cell-based
[8] = growth suppression of beta-catenin-knockout colon cells, dose response, cell-based, HCT116, human colon tumor (AID 1045); format: functional;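 also: HCT116 colon tumor cells with beta catenin knocked out; cells exposed to compound for 60 hours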
[9] = growth suppression of PTEN-null colon cells, dose response, cell-based, HCT116 PTEN knockout (AID 1047); format: functional;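 also: HCT116 colon tumor cells with PTEN knocked out; cells exposed to compound for 60 hours before readout; potency for loss of cell viability measured by luminescence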
Prothrombin = Prothrombin (Homo sapiens, UniProt P00734); assay: Thrombin 1536 HTS Dose Response Confirmation. [Related pubchem assays: 1046 (Thrombin 1536 HTS; hits were confirmed in this assay)]; format: functional
[10] = target: T1, DNA repair protein RAD52 homolog (Homo sapiens, UniProt P43351); format: functional, biochemical
T1 sequence (P43351 whole entry): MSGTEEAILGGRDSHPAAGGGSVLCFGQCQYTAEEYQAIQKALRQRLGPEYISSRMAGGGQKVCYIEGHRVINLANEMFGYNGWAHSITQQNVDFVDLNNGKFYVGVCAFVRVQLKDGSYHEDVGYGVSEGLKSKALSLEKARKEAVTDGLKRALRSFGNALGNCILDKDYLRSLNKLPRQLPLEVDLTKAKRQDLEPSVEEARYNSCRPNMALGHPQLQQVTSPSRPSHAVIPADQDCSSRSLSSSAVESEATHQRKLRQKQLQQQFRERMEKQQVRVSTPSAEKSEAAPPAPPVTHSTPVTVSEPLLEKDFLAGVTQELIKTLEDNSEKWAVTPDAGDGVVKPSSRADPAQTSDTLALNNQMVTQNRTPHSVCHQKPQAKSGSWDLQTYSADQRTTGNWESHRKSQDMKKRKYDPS

Cytochrome P450 3A4 = Cytochrome P450 3A4 (Homo sapiens, UniProt P08684); settings: Potency;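 also: confirmatory qHTS run detecting inhibitors and substrates of CYP3A4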
Vero = assay: cells; format: functional; settings: Chlorocebus sabaeus
[11] = Luminescence Cell-Based Dose Confirmation HTS to Identify Activators of 5'UTR Stem-Loop Driven Alpha-Synuclein mRNA Translation in H4 Neuroglioblastoma Cells. [Related pubchem assays: 1829 (Project Summary), 1814 (Primary HTS)]; format: functional
H4 = assay: Luminescence Cell-Based Dose Response HTS to Identify Activators of 5'UTR Stem-Loop Driven Prion Protein mRNA Translation in H4 Neuroglioblastoma Cells. [Related pubchem assays: 1829 (Project Summary), 1814 (Primary HTS)]; format: functional; settings: Homo sapiens
[12] = Luminescence Cell-Based Dose Retest to Confirm Inhibitors of Cancer Stem Cells. [Related pubchem assays (depositor defined):AID2717, AID2721]; format: functional; settings: Homo sapiens
[13] = Luminescence Cell-Based Dose Response HTS to Identify Activators of Luciferase Translation or Activity in H4 […] Cells. [Related pubchem assays: 1829 (Project Summary), 1814 (Primary HTS)]; format: functional
Streptococcus = assay: Group A Streptococcus viability loss, dose response, counter-screen for streptokinase expression inhibitor project, luminescence, BacTiterGlo (AID 1915); format: functional, organism-based;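 also: potency for reduction of bacterial viability or growth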
[14] = tested on: Streptococcus sp. 'group A'; assay: growth inhibition of control SK(-) GAS strain, dose response, counter-screen for streptokinase expression inhibitor project, luminescence, kanamycin, BacTiterGlo, confirmation (AID 1900); format: functional, organism-based
[15] = inhibitors of intracellular T. cruzi replication, confirmation, NIH3T3 host cells, beta-gal luminescence (AID 2044); format: functional, cell-based;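 also: intracellular parasites grown in NIH/3T3 mouse fibroblasts as host cells; luminescent beta-galactosidase reporter signal from transgenic T. cruzi replicating inside host cells; inhibitors lower the luminescence signal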
[16] = cytotoxicity toward NIH3T3 fibroblasts, dose response, counter-screen, cell-based, ATP luminescence, mouse fibroblasts (AID 2010); format: functional;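 also: cells exposed to compound for about 90 hours before reading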
cells [17] = format: functional, cell-based
cells [18] = format: functional, cell-based; remark: listed apart in the source
[19] = target: T2, Methionyl-tRNA synthetase, putative (Trypanosoma brucei brucei, UniProt Q38C91); format: functional, Trypanosoma brucei brucei strain 927/4 GUTat10.1
T2 sequence (Q38C91 whole entry): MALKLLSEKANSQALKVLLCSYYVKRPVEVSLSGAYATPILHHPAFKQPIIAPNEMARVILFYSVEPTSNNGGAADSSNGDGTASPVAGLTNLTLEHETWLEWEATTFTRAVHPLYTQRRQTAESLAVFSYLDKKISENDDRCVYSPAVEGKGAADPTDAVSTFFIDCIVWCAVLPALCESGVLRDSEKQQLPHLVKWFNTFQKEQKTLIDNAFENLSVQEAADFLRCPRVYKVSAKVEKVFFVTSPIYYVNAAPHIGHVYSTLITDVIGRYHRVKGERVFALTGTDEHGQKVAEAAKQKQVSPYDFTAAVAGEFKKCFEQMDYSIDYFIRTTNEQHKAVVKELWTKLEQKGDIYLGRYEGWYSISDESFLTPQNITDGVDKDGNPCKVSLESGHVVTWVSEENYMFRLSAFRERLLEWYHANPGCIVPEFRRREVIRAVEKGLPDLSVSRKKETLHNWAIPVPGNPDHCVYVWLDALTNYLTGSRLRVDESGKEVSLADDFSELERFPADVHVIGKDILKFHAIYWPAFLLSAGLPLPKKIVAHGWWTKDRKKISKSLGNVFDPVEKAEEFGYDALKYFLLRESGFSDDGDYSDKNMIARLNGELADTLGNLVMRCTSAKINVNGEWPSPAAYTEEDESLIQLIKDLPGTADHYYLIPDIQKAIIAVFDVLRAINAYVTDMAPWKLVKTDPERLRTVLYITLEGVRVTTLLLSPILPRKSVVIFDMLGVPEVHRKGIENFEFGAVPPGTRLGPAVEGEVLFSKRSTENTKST

[20] = Counterscreen for inhibitors of Trypanosoma brucei methionyl tRNA synthetase (MetRS): Luminescence-based cell-based high throughput dose response assay to identify compounds that are cytotoxic to Jurkat human T lymphocyte cells.; format: functional
[21] = target: T2, Methionyl-tRNA synthetase, putative; format: functional, Trypanosoma brucei brucei strain 927/4 GUTat10.1; remark: listed apart in the source
Large T antigen = Large T antigen (Simian virus 40, UniProt P03070); format: functional, Betapolyomavirus macacae;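 also: Confirmatory-stage PubChem screen for compounds that inhibit SV40 T antigen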
[22] = target: FAD-linked sulfhydryl oxidase ALR (Homo sapiens, UniProt P55789); assay: inhibitors of human ALR sulfhydryl oxidase, dose response, biochemical, H2O2 detection, luminescence, cherry-pick (AID 493248)
Sequence of FAD-linked sulfhydryl oxidase ALR (P55789 whole entry): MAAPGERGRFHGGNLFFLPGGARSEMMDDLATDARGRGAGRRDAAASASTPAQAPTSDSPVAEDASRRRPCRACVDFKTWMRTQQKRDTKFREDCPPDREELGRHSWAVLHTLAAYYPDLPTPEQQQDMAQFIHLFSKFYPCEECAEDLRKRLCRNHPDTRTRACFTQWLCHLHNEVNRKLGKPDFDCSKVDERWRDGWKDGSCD

Sequence of Cytochrome P450 3A4 (P08684 whole entry): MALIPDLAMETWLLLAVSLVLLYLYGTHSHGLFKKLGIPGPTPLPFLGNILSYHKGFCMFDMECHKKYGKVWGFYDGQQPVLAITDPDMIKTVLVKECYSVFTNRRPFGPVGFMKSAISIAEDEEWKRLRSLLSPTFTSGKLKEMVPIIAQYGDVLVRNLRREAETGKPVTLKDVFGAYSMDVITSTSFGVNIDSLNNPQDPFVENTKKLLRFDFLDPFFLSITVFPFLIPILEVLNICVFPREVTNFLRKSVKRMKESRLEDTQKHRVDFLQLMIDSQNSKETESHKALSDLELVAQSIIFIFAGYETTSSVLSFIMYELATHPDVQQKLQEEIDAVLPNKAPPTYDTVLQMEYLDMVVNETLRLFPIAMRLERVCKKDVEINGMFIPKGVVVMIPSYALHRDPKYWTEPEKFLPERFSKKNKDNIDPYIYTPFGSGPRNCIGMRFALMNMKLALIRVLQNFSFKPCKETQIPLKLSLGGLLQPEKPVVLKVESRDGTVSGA
Sequence of Large T antigen (P03070 whole entry): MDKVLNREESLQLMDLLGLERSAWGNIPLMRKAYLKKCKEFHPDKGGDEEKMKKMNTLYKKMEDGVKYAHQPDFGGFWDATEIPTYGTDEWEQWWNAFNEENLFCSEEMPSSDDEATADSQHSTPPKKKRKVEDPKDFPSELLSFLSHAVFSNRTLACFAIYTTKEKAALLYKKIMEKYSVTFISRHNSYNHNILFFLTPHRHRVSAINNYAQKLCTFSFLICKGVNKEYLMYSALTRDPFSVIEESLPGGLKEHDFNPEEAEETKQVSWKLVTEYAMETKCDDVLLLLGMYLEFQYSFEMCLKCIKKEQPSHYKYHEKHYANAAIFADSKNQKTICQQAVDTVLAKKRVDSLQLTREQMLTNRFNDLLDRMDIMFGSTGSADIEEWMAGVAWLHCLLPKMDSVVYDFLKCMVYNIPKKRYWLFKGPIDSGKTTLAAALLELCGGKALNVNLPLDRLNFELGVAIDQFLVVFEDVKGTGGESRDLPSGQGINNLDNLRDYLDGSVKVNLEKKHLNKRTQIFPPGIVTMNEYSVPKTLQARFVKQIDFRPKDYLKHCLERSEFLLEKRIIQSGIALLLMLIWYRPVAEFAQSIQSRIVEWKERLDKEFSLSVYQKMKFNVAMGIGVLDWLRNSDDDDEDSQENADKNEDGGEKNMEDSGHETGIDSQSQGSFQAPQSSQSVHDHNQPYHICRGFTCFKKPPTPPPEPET

Structure (SMILES): COc1ccccc1N1CCN(C(=O)c2sc3nc(-c4ccc(F)cc4)cn3c2C)CC1
- AC50 [1]: 43.3 µM (active)
- AC50 [2]: 37.1 µM (active)
- AC50 [3]: > 52 µM (inactive)

Structure (SMILES): Cc1ccccc1CCN(C(=O)c1csnn1)C(C(=O)NC1CCCC1)c1ccncc1 (configuration not stated)
- AC50 [4]: 0.742 µM (active)
- AC50 [5]: 1.13 µM (active)
- AC50 [6]: < 0.26 µM (active)
- AC50 [7]: 0.548 µM (active)

Structure (SMILES): CC(C)CC#Cc1ccc2c(c1)O[C@@H](CN(C)S(=O)(=O)c1cccc(F)c1)[C@@H](C)CN([C@@H](C)CO)S2(=O)=O
- AC50 [4]: 8.81 µM (active)
- AC50 [6]: 11.6 µM (active)
- AC50 [7]: 7.21 µM (active)

Structure (SMILES): Cc1cc2nc(-c3ccc(SCC(=O)Nc4nccs4)nc3)[nH]c2cc1C
- EC50 [8]: 33.3 µM (active)
- EC50 [9]: 19.6 µM (active)

Structure (SMILES): C#CCSc1nncn1C(=O)/C=C/c1ccccc1
- IC50 (Prothrombin): 0.294 µM (active)

Structure (SMILES): C[C@H](CO)N1C[C@H](C)[C@H](CN(C)S(=O)(=O)c2ccccc2F)Oc2ncc(/C=C/c3ccccc3)cc2C1=O
- AC50 [4]: 10.2 µM (active)
- AC50 [6]: 10.1 µM (active)
- AC50 [7]: 3.51 µM (active)

Structure (SMILES): COc1cccc(S(=O)(=O)N(C)C[C@@H]2Oc3cc(C#CCC(C)C)ccc3S(=O)(=O)N([C@@H](C)CO)C[C@@H]2C)c1
- AC50 [4]: 46.1 µM (active)
- AC50 [6]: 25.7 µM (active)
- AC50 [7]: 20 µM (active)

Structure (SMILES): CCN(CC)CCCNC(=O)c1csc(Nc2cccc3ccccc23)n1
- AC50 [10]: 21.9 µM (active)

Structure (SMILES): COc1ccc(C2C=C(c3ccc(Br)cc3)Nc3nc(N4C(=O)CCC4=O)nn32)cc1 (configuration not stated)
- IC50 (Prothrombin): > 50 µM (not active)

Structure (SMILES): COC(=O)c1cccc(C23CC4(C2)[C@H](CN(Cc2ccc(C(F)(F)F)cc2)[C@@H]4c2ccccc2)C3c2ccc(C(F)(F)F)cc2)c1 (some centres not stated)
- AC50 (Cytochrome P450 3A4): 12.6 µM (inconclusive)

Structure (SMILES): O=C(CNC(=O)OCc1ccccc1)Nc1ccc(Br)cc1C(=O)c1ccccc1Cl
- EC50 [8]: 45.4 µM (active)
- EC50 [9]: 44.5 µM (active)

Structure (SMILES): Sc1nnc(COc2ccccc2)n1/N=C/C(Cl)=C/c1ccccc1
- CC50 (Vero): > 25 µM (active)
- EC50 [11]: 6.85 µM (active)
- EC50 (H4): > 120 µM (not active)
- AC50 [12]: 2.32 µM (active)
- EC50 [13]: 12.6 µM (active)

Structure (SMILES): Cc1cc(C(=O)COc2cccc(-n3cnnn3)c2)c(C)n1-c1ccccc1
- EC50 [8]: 77.4 µM (active)
- EC50 [9]: 48.3 µM (active)

Structure (SMILES): COc1ccccc1/C=C/c1ccc2cccc(O)c2n1
- EC50 (Streptococcus): 6 µM (active)
- CC50 (Vero): > 25 µM (active)
- EC50 [14]: 1.52 µM (active)
- EC50 [15]: 2.74 µM (active)
- EC50 [16]: > 60 µM (not active)

Structure (SMILES): CC1CCN(S(=O)(=O)c2cc(C(=O)N3CCN(c4ccccc4)CC3)ccc2Br)CC1
- AC50 [4]: 3.22 µM (active)
- AC50 [6]: 4.92 µM (active)
- AC50 [7]: 40.3 µM (active)

Structure (SMILES): CC(Cc1ccccc1)NC(=O)/C=C/C(=O)O (configuration not stated)
- EC50 (cells [17]): > 29.9 µM (inactive)
- IC50 (cells [18]): > 29.9 µM (inactive)

Structure (SMILES): CSCc1nc2scc(-c3ccccc3)c2c(=O)[nH]1
- IC50 (Prothrombin): > 50 µM (not active)

Structure (SMILES): Cc1ccc(CNC(=O)CSc2n[nH]c3c4cc(F)ccc4nc-3n2)cc1
- IC50 [19]: 119 µM (inactive)
- IC50 [20]: 83.3 µM (inactive)
- IC50 [21]: 0.785 µM (active)

Structure (SMILES): COc1ccc(C)cc1N1C(=O)C(c2ccccc2)C(c2nc3ccccc3s2)=C1N (configuration not stated)
- CC50 (Vero): 6.15 µM (active)
- EC50 [8]: 2.48 µM (active)
- EC50 [9]: 3.06 µM (active)
- AC50 [12]: 4.88 µM (active)

Structure (SMILES): N=C(N)N/N=C/c1ccc(OCc2ccccc2Cl)cc1
- EC50 [8]: 4.04 µM (active)
- EC50 [9]: 4.14 µM (active)
- EC50 [15]: 0.539 µM (active)
- AC50 [10]: 16.6 µM (active)
- EC50 [16]: > 60 µM (not active)

Structure (SMILES): CC(C)N(Cc1nc(-c2ccccc2)no1)C(=O)CN(C)S(=O)(=O)c1ccc(Br)cc1
- AC50 [5]: 60.4 µM (active)
- AC50 [6]: 20.1 µM (active)
- AC50 [7]: 49.9 µM (active)

Structure (SMILES): Cc1cc(O)c(C=O)c2c1C(=O)Oc1c(C)c(O)c3c(c1O2)C(O)OC3=O (configuration not stated) [NORSTICTIC ACID]
- AC50 (Cytochrome P450 3A4): 39.8 µM (inconclusive)

Structure (SMILES): NC(=O)Nc1ccc(Nc2ccccc2)cc1
- IC50 (Large T antigen): 7.83 µM (active)
- AC50 [22]: 0.916 µM (active)

Structure (SMILES): O=C(Nc1ccc(CN2CCS(=O)(=O)CC2)cc1)c1ccc(C(F)(F)F)cc1
- AC50 [5]: > 70 µM (inactive)
- AC50 [6]: 3.22 µM (active)

Structure (SMILES): OC(c1cc(F)cc(Cl)c1)c1nc(-c2ccc(Cl)cc2)c[nH]1 (configuration not stated)
- IC50 [19]: 15 µM (inactive)
- IC50 [20]: 56.3 µM (inactive)
- IC50 [21]: 6.73 µM (active)

Structure (SMILES): CCN1C(=O)C(CC(=O)Nc2ccc(OC)cc2)N(CCc2ccc(F)cc2)C1=S (configuration not stated)
- IC50 [19]: 11.4 µM (inactive)
- IC50 [20]: 61.1 µM (inactive)
- IC50 [21]: 6.2 µM (active)

Structure (SMILES): O=C(CNC(=O)c1ccccc1F)OCC(=O)c1c[nH]c2ccccc12
- EC50 (cells [17]): > 29.9 µM (inactive)
- IC50 (cells [18]): > 29.9 µM (inactive)

Structure (SMILES): CC(C)(C)[C@H]1C=C(C(=O)NCc2nc3ccccc3[nH]2)O[C@@H](OCCCCO)C1
- IC50 [19]: 6.66 µM (active)
- IC50 [20]: 83.3 µM (inactive)
- IC50 [21]: 2.63 µM (active)

Structure (SMILES): NCc1cc2c3c(c1)CCCN3CCC2
- AC50 [10]: 1.92 µM (active)

Structure (SMILES): O=C(Nc1ccc(O)cc1)c1ccc(NC(=O)C2CCCO2)cc1 (configuration not stated)
- IC50 (Large T antigen): 11.1 µM (active)

Structure (SMILES): Cc1cc(C(=O)CSc2nnnn2C)c(C)n1-c1cccc(F)c1
- IC50 (Prothrombin): > 50 µM (not active)

Structure (SMILES): COc1ccccc1NC(=O)N1CCCC1C(=O)NC1CCCCC1 (configuration not stated)
- IC50 (Prothrombin): > 50 µM (not active)

Reference: ChEMBL document CHEMBL1201862, “PubChem BioAssay data set” (2004)
